The text below walks through data of article PMC8064475, “Synthesis of Biobased Phloretin Analogues: An Access to Antioxidant and Anti-Tyrosinase Compounds for Cosmetic Applications” (Antioxidants, 2021).

“Also recorded” adds a separate entry of the source. Where only a bound is given, the exact number is not on record here.

The nature of data set [1]: DPPH radical scavenging assay. The class given is biochemical. To be noted: in ethanol; DPPH 200 µM; read at 520 nm over 7.5 h; read-out: EC50 for DPPH inhibition. As to the method:
The radical scavenging activity of all compounds was tested through 2,2-diphenyl-1-picryhydrazyl (DPPH) assay which determines the EC50 values as previously described. The test consists of adding 190 µL of DPPH solution (200 µM) in ethanol to 10 µL of potential antiradical molecule solution at different concentrations (from 800 to 12.5 µM). The reaction was carried out in 96-well microplates and the disappearance of DPPH radicals was monitored at 520 nm every 5 min during 7.5 h in a multiplate Biotek (Winooski, VT, USA), Epoch 2 spectrophotometer. The EC50 values, corresponding to the concentration needed to reduce half of the initial population of DPPH radicals, were provided by the crossing point of the curves of %DPPH and %reduced DPPH. Curves dots were obtained using an average of the last six measurements for each concentration in Regressi® software version 3.99.

A further data set concerns the target mushroom tyrosinase. The data set is described as follows: Mushroom tyrosinase inhibition assay. The class given is biochemical. To be noted: tyrosine substrate; ammonium formate buffer pH 6.4; 37 °C; dopachrome at 420 nm. The procedure:
Tyrosinase inhibition activity was evaluated using the method used by Peyrot et al.. […] Then, 20 µL of tyrosine at 4.42 mM in ammonium formate buffer was added. […] IC50 values, corresponding to the concentration required to inhibit 50% of tyrosinase activity, were obtained using GraphPad Prism® software version 6.01.

Data set [2] is described as follows: UV-Vis spectra at 10 µM in ethanol. The following applies: 1 cm quartz cuvette, band I. The class given is physicochemical. The procedure:
(§1) UV-Vis spectra were recorded at 10 µM in ethanol on a Cary 60 UV-Vis spectrophotometer by Agilent (Wilmington, DE, USA) in a 1 cm quartz cuvette. The absorbance loss was evaluated by comparison of absorbances at the λmax before and after 1 h of irradiation into a Rayonet® RPR-200 (λ = 300 nm, P = 8.32 W.m^−2, stirring, T = 35 °C) (SNE Ultraviolet Co. Branford, CT, USA) using 14 RPR-3000A lamps.

Data set [3] can be described thus: Photostability: absorbance loss after UV irradiation. The following applies: 10 µM in ethanol; 1 h irradiation at 300 nm; absorbance at λmax before vs after. It is filed as physicochemical. The procedure: as §1

Consider “3,4,4′-trihydroxy-3-methoxy-chalcone [a7]”, for which, in data set [1], the EC50 is 31.5 µM. On mushroom tyrosinase, this molecule yielded an IC50 of 2300 ± 100 µM. For the same molecule, the Maximal absorbance in data set [2] amounted to 0.38. The molecule further displayed a Loss of absorbance in data set [3] of 46.2%.
For `COc1cc(/C=C/C(=O)c2ccc(O)cc2)ccc1O` [a5, 4,4′-dihydroxy-3-methoxy-chalcone], in data set [1], the EC50 was 71 µM. Inhibition against mushroom tyrosinase was half-maximal at 2300 ± 100 µM (IC50).
In the case of `COc1cc(C(=O)/C=C/c2ccc(O)cc2)ccc1O` [a6, 4,4′-dihydroxy-3′-methoxy-chalcone], the EC50 in data set [1] was > 80 µM. The same molecule had an IC50 on mushroom tyrosinase of 140 ± 10 µM. For the same molecule, the Loss of absorbance in data set [3] came out at 16.1%.
Consider `COc1cc(C(=O)/C=C/c2ccc(O)cc2)cc(OC)c1O` [a9, 4,4′-dihydroxy-3′,5′-dimethoxy-chalcone], for which the EC50 in data set [1] was > 80 µM. On mushroom tyrosinase, the IC50 turned out to be 130 ± 10 µM.
On to `COc1cc(/C=C/C(=O)c2cc(OC)c(O)c(OC)c2)cc(OC)c1O` [a12, 4,4′-dihydroxy-3,3′,5,5′-tetramethoxy-chalcone], for which the EC50 in data set [1] worked out at 43 µM. The IC50 on mushroom tyrosinase was > 10000 µM.
The matching figures for `COc1cc(/C=C/C(=O)c2ccc(O)c(O)c2)ccc1O` [a8, 3′,4,4′-trihydroxy-3-methoxy-chalcone]: 9.5 µM and > 10000 µM.
Turning to `CCCCC(CC)COC(=O)C=Cc1ccc(OC)cc1` (stereo not drawn) [Octinoxate, octinoxate, reference compound], in data set [2], the Maximal absorbance is on record as 0.24. This molecule had a Loss of absorbance in data set [3] of 26.0%.
For the molecule `O=C(CCc1ccc(O)c(O)c1)c1ccc(O)c(O)c1` [b4, 3,3′,4,4′-tetrahydroxy-dihydrochalcone], in data set [1], the EC50 stood at 15 µM. In addition, the IC50 against mushroom tyrosinase is > 10000 µM. Further, the Loss of absorbance entry in data set [3] was “Negative loss of absorbance; also recorded: higher absorbance higher after 1 h of irradiation”.
As for `O=C(/C=C/c1ccc(O)c(O)c1)c1ccc(O)c(O)c1` [a4, 3,3′,4,4′-tetrahydroxy-chalcone], the EC50 in data set [1] worked out at 8 µM. In data set [2], the Maximal absorbance came out at 0.47. Moreover, the Loss of absorbance in data set [3] turned out to be 75.7%.
On to `O=C(/C=C/c1ccc(O)c(O)c1)c1ccc(O)cc1` [a2, 3,4,4′-trihydroxy-chalcone], for which, in data set [1], the EC50 was 31.5 µM.
With `Cc1cc(C(C)(C)C)c(O)c(C(C)(C)C)c1` [BHT, butylated hydroxytoluene, reference compound], the EC50 in data set [1] came out at 28 µM.
`COc1cc(C(=O)CCc2ccc(O)cc2)ccc1O` [b6, 4,4′-dihydroxy-3′-methoxy-dihydrochalcone]: the EC50 in data set [1] was > 80 µM. The IC50 on mushroom tyrosinase is > 10000 µM.
Regarding `O=C(/C=C/c1ccc(O)cc1)c1ccc(O)c(O)c1` [a3, 3′,4,4′-trihydroxy-chalcone], the EC50 in data set [1] was found to be 15.5 µM. On mushroom tyrosinase, the IC50 was > 10000 µM and the “IC50 for mushroom tyrosinase inhibition” value is “did not show any activity”.
For `COc1cc(CCC(=O)c2ccc(O)cc2)ccc1O` [b5, 4,4′-dihydroxy-3-methoxy-dihydrochalcone], the EC50 in data set [1] was determined as 28 µM. This molecule displayed an IC50 on mushroom tyrosinase of 500 ± 30 µM.
Regarding `COc1ccc(O)c(C(C)(C)C)c1` [BHA, butylated hydroxyanisol, reference compound], the EC50 in data set [1] came out at 18.5 µM.
For `COc1cc(C(=O)CCc2ccc(O)c(O)c2)ccc1O` [b7, 3,4,4′-trihydroxy-3-methoxy-dihydrochalcone], the EC50 in data set [1] is 32 µM. In addition, the IC50 at mushroom tyrosinase was > 10000 µM.
`O=C(/C=C/c1ccc(O)cc1)c1ccc(O)cc1` [a1, 4,4′-dihydroxy-chalcone]: the EC50 in data set [1] is > 80 µM. The molecule further showed an IC50 at mushroom tyrosinase of 100 ± 10 µM. This molecule came in with a Maximal absorbance in data set [2] of 0.65. In data set [3], this molecule gave a Loss of absorbance of 77.6%.
As to `COc1ccc(C(=O)CC(=O)c2ccc(C(C)(C)C)cc2)cc1` [Avobenzone, avobenzone, reference compound], the Maximal absorbance in data set [2] was 0.37. The same molecule had a Loss of absorbance in data set [3] of 0.6%.
On to `COc1cc(/C=C/C(=O)c2ccc(O)c(OC)c2)ccc1O` [a10, 4,4′-dihydroxy-3,3′-dimethoxy-chalcone], for which the EC50 in data set [1] was found to be 43.5 µM. Further, the IC50 against mushroom tyrosinase was 1800 ± 90 µM.
With `COc1cc(CCC(=O)c2ccc(O)c(O)c2)ccc1O` [b8, 3′,4,4′-trihydroxy-3-methoxy-dihydrochalcone], the EC50 in data set [1] was 11 µM. At mushroom tyrosinase, this molecule showed an IC50 of 70 ± 10 µM. The molecule also showed a Loss of absorbance in data set [3] of 0.1%.
For `COc1cc(CCC(=O)c2cc(OC)c(O)c(OC)c2)cc(OC)c1O` [b12, 4,4′-dihydroxy-3,3′,5,5′-tetramethoxy-dihydrochalcone], the EC50 in data set [1] amounted to 42.5 µM. The IC50 against mushroom tyrosinase was > 10000 µM.
As for `O=C(CCc1ccc(O)c(O)c1)c1ccc(O)cc1` [b2, 3,4,4′-trihydroxy-dihydrochalcone], the EC50 in data set [1] was determined as 35 µM. Also, the IC50 on mushroom tyrosinase is > 10000 µM. In data set [2], this molecule yielded a Maximal absorbance of 0.21. Also, the Loss of absorbance in data set [3] turned out to be 11.4%.
As to `COc1cc(C(=O)/C=C/c2cc(OC)c(O)c(OC)c2)ccc1O` [a11, 4,4′-dihydroxy-3,3′,5-trimethoxy-chalcone], the EC50 in data set [1] worked out at 45 µM. Moreover, on mushroom tyrosinase, inhibition was half-maximal at 7900 ± 400 µM (IC50). In data set [2], this molecule came in with a Maximal absorbance of 0.27.
`COc1cc(CCC(=O)c2ccc(O)c(OC)c2)ccc1O` [b10, 4,4′-dihydroxy-3,3′-dimethoxydihydrochalcone]: in data set [1], the EC50 is 29.5 µM. At mushroom tyrosinase, this molecule showed an IC50 of 270 ± 10 µM. This molecule returned a Maximal absorbance in data set [2] of 0.13. In data set [3], the Loss of absorbance was found to be 20%.
In the case of `O=C(CCc1ccc(O)cc1)c1ccc(O)cc1` [b1, 4,4′-dihydroxy-dihydrochalcone], the EC50 in data set [1] was > 80 µM. Also, the IC50 at mushroom tyrosinase was > 10000 µM. The same molecule showed a Maximal absorbance in data set [2] of 0.23. Also, in data set [3], the Loss of absorbance came to 13.8%.
`COc1cc(C(=O)CCc2cc(OC)c(O)c(OC)c2)ccc1O` [b11, 4,4′-dihydroxy-3,3′,5-trimethoxy-dihydrochalcone]: the EC50 in data set [1] is 33 µM. For the same molecule, the IC50 against mushroom tyrosinase is > 10000 µM. For the same molecule, in data set [3], the Loss of absorbance result was “Full loss of absorbance”.
As to `COc1cc(C(=O)CCc2ccc(O)cc2)cc(OC)c1O` [b9, 4,4′-dihydroxy-3′,5′-dimethoxy-dihydrochalcone], in data set [1], the EC50 was > 80 µM. In addition, the IC50 against mushroom tyrosinase was > 10000 µM. The molecule also showed a Maximal absorbance in data set [2] of 0.19. Further, in data set [3], the Loss of absorbance is recorded as 67.7%.
On to `O=C(CCc1ccc(O)cc1)c1ccc(O)c(O)c1` [b3, 3′,4,4′-trihydroxy-dihydrochalcone], for which the EC50 in data set [1] turned out to be 16 µM. Besides, the IC50 on mushroom tyrosinase is > 10000 µM. The Loss of absorbance entry in data set [3] is given as “Negative loss of absorbance; also recorded: higher absorbance higher after 1 h of irradiation”.
Regarding `O=C(CCc1ccc(O)cc1)c1c(O)cc(O)cc1O` [Phloretin, phloretin], the EC50 in data set [1] stood at 24.5 µM. Also, at mushroom tyrosinase, the IC50 is > 10000 µM and the “IC50 for mushroom tyrosinase inhibition” value is recorded as “did not exhibit tyrosinase inhibition activity”. The molecule further displayed a Maximal absorbance in data set [2] of 0.23. The molecule also displayed a Loss of absorbance in data set [3] of 5.9%.

Usually EC50 stands for the midpoint of the concentration-response curve. What is called IC50 is the concentration that gives 50% inhibition.
